According to US9271953B2, “Methods for correction of organ dysfunction” (priority 2013, dated 2016):
Entries after “also recorded” stand apart in the source; their conditions may differ.

What was measured:
[1] = test system: patients with connective tissue disorders and/or autonomic dysfunction; test: Patient studies / case studies with the oral compound; format: in vivo, human; settings: patients with organ malfunction secondary to poor vagus nerve function
Experimental: The composition and method of use of the present invention is also unique because it corrects for these numerous causes of dysfunction and includes ingredients in the quantities and form required to work around the genetic, vascular, and/or co-morbid components involved. IBS/gastroparesis/constipation was initially targeted. In patient studies, a response to medication (a bowel movement) occurred within 2-12 hours, without exception. Patients were identified with a mix of co-morbid conditions including chronic fatigue syndrome, fibromyalgia, joint hypermobility and autonomic dysfunction.
The present composition was provided to a number of patients having certain diagnosed diseases, as summarized in Table 1 above and suffering from a variety of medical conditions or symptoms associated with those diseases, again, as summarized above.

[2] = test system: post-ganglionic nicotinic acetylcholine receptors; test: Oral single agents in patients with damaged pre-ganglionic vagus nerve: organ function; format: in vivo, human
From the text: In one embodiment of the invention, transdermal (topical) application of nicotine, applied near the lower right-hand corner of the abdomen stimulates the post-ganglionic nicotinic acetylcholinergic receptor controlling the ileocecal valve, for example, allowing the valve to open. Oral nicotine, however, is ineffective at stimulating the post-ganglionic nicotinic acetylcholinergic nerves in the abdomen, yet it exposes the patient to the direct (and negative) effect on the cerebellum.^38 In numerous patients tested, oral physostigmine or Huperzine A (both inhibitors of acetylcholinesterase, and thus indirect stimulators of both nicotinic and muscarinic acetylcholine receptors) were not effective in stimulating organ function when the pre-ganglionic portion of the vagus nerve was damaged. It is clear that in addition to inhibitors of acetylcholinesterase, other ingredients are necessary to stimulate organ function in this patient population. […] It was only through extensive testing that the inventor was able to discover the proper range of oral ingredients which were effective in stimulating these post-ganglionic nerves.

[3] = in vivo; cited from earlier work
[4] = test system: post-ganglionic nicotinic acetylcholine receptors
From the text: Nicotine is a powerful nicotinic agonist found in the leaves of the tobacco plant (Nicotiana tabacum).

IGF-1 = IGF-1 levels in Patient 1; format: in vivo, human; settings: 2 units/day growth hormone, before compound
From the text: Not intending to be bound by theory, and in no way a limitation of the present invention, the invention (excluding nicotine) can be used to stimulate production of human growth hormone, often found to be low in chronic pain syndromes, including disorders of connective tissue, “POTS”, “Hyperadrenergic POTS” and fibromyalgia. Rather than treating the patients with exogenous growth hormone, the present invention instead treats the source of the low growth hormone levels (as measured via IGF-1). Growth hormone levels can then return to normal and dysregulation of the hypothalamic-pituitary-adrenal axis is normalized. […]
Patient 1: Diagnoses: joint hypermobility (judged by the Beighton Scale), autonomic dysfunction (patient failed the Tilt Table Test of autonomic function) and visual and auditory hallucinations, hypothermia. […] Their liver enzymes and kidney function began to show abnormal readings, and pain at the site of the ileocecal valve began to occur. […]

CC(=O)O[C@H](CC(=O)[O-])C[N+](C)(C)C [Acetyl-L-Carnitine]
organ function when Acetyl-L-Carnitine was added to the compound [1]: invariably achieved better organ function

C/C=C1\[C@H]2C=C(C)C[C@]1(N)c1ccc(=O)[nH]c1C2 [Huperzine A]
response to medication ([2]; Patient 2, prescribed for mental fatigue): no response
stimulating organ function when the pre-ganglionic portion of the vagus nerve was damaged ([2]; oral, numerous patients tested): not effective

CN1CCCC1c1cccnc1 (centres unmarked) [nicotine, Nicotine]
lethal dosage [3]: 60 mg
opening the ileocecal valve, arresting gastroparesis/chronic constipation ([2]; oral doses of nicotine): ineffective
stimulating the post-ganglionic nicotinic acetylcholinergic nerves/receptors (organ function) ([2]; oral nicotine): ineffective; also recorded: not effective
skin side effects ([4]; Patient 1, 7 g transdermal nicotine): intractable itching, redness, and skin welting
ileocecal valve opening ([4]; Patient 1, 7 g transdermal nicotine near the ileocecal valve): opened the valve overnight
reversal of chronic constipation, gastroparesis, dysmotility, ileocecal valve and Sphincter of Oddi dysfunction: time ([4]; transdermal 3-21 mg, lower right-hand quadrant of abdomen): usually within hours
opening of the ileocecal valve ([4]; transdermal 3-21 mg, patients with poor vagus nerve function, valve not physically damaged): never failed to open the ileocecal valve

growth hormone: exogenous growth hormone, 2 units/day
IGF-1 levels raised to the upper normal range (IGF-1): which it did
